According to patent publication US10000452B1, “Quinolone-based compounds, formulations, and uses thereof” (University of South Florida, priority 2016, dated 2018):
≈ marks a conversion by molar mass, not a printed value. Read-outs that look alike come from different tables or passages of the source.

Tests used:
[1] = system: malarial strain W2 (pyrimethamine and chloroquine-resistant); assay: in vitro antimalarial activity against multidrug resistant strain W2; format: cell-based, P. falciparum; settings: Plasmodium falciparum, read-out: EC50 W2 (nM)
[2] = system: malarial strain TM90-C2B (mefloquine, chloroquine, atovaquone, and pyrimethamine-resistant); assay: microbe, parasite or virus in culture; format: cell-based, P. falciparum; settings: Plasmodium falciparum, TM90, read-out: EC50 TM90-C2B (nM)
Text: Ideally, the RI of a compound should lie between 0.3 and 3.0 in order to avoid rapidly inducing resistance in the parasite. […]

[3] = system: P. berghei sporozoites expressing luciferase; assay: in vitro liver stage activity, luciferase sporozoites infecting HEPG2 hepatoma cells; format: cell-based; settings: Plasmodium berghei, HEPG2 cells
J774 mammalian cells = assay: cytotoxicity to J774 cells; format: cell-based; settings: Mus musculus, J774, read-out: EC50 J774 (μM)
Method: This allowed a simplified method for comparing the different assays being simultaneously run. Additionally, each compound was also tested for cytotoxicity using mammalian J774 cell lines in a 96-well plate format.^12-14, 16

[4] = aqueous solubility (LC/MS- or HPLC-based assay); format: physicochemical; settings: for solubility: aqueous solution (buffer not named)
Summary of the method: (§1)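 Aqueous solubility and log D (pH 7.4) determined by LC/MS-based assays; solubility examined at more than one pH.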

[5] = lipophilicity log D at pH 7.4; format: physicochemical; settings: octanol/water
Summary of the method: as §1

Pb-infected mice = assay: in vivo efficacy scouting assay against blood stages; parameters: species or system P. berghei; mice
Method: The screening involved a single oral 50 mg/kg dose 1 day post infection (PI) and an assessment of parasitemia on days 3 PI and 6 PI (Table 6).
The screening was performed by treating two infected mice with a single 50 mg/kg oral dose of test compound suspended in PEG400 on day 1 postexposure (PE) followed by assessing parasitemia on days 3 and 6 PE.

P. berghei-GFP parasites = assay: modified Thompson test; format: in vivo, P. berghei; mice
Method: Mice were infected with 1×10^6 P. berghei-GFP parasites and compounds were dosed orally on days 3, 4 and 5 PI with a dose of 10 mg/kg of compound suspended or dissolved in HEC/Tween or PEG 400. Parasitemia was observed by flow cytometry on days 3, 6, 9, 13, 21, and 30 PI. Compounds with animal survival up to day 30 PI and parasitemia levels of less than 1% on day 30 PI were considered to be cures. Lastly, animals with more than 40% parasitemia levels were euthanized.
On days 3, 6, 9, 13, 21, and 30 PE, parasitemia was monitored by Giemsa-stained blood smears. Both compounds were evaluated by the reduction of parasitemia on day 6 PE and the survival up to day 30 PE.

[6] = target: P. berghei sporozoites expressing luciferase; settings: previous work; read-out: liver stage activity; cited from earlier work
[7] = system: malarial strain TM90-C2B (mefloquine, chloroquine, atovaquone, and pyrimethamine-resistant); settings: previous work; cited from earlier work
[8] = single oral 50 mg/kg dose 1 day PI, vs untreated animals

SMILES	EC50 [1]	EC50 [2]	EC50 [3]	EC50 (J774 mammalian cells)	solubility ([4]; pH 2, simulated gastric fluid, pH 2.0, read-out: Solubility pH 2.0)	solubility ([4]; pH 6.5, aqueous buffer, pH 6.5, read-out: Solubility pH 6.5)	chromatographic logD [5]	inhibition in vivo at 50 mg/kg (Pb-infected mice; Plasmodium berghei, po, 144 h, read-out: % Inhibition Day 6 PI)	activities in these scout assays (Pb-infected mice; single oral 50 mg/kg dose 1 day PI, result in words)	% Inhibition Day 3 PI (Pb-infected mice; [8])	% Inhibition Day 6 PI (Pb-infected mice; [8])	Avg. Day of Death (P. berghei-GFP parasites; 10 mg/kg oral on days 3, 4 and 5 PI)	No. of Cures (P. berghei-GFP parasites; 10 mg/kg oral on days 3, 4 and 5 PI, survival to day 30 PI with parasitemia <1%)	inhibition in vivo at 10 mg/kg (P. berghei-GFP parasites; Plasmodium berghei, in Mus musculus, 144 h, 10 mg/kg oral on days 3, 4 and 5 PI, vs untreated control animals, read-out: % Inhibition Day 6 PI)	fold more soluble in comparison to 6b ([4]; Example 2)	% inhibition on day 6 PE (Pb-infected mice; Example 2: two mice, single 50 mg/kg oral dose in PEG400 on day 1 PE)	day mice were sacrificed (P. berghei-GFP parasites; Example 2: 10 mg/kg oral days 3, 4, 5, controls sacrificed day 13)	% inhibition on day 6 PE (P. berghei-GFP parasites; Example 2: 10 mg/kg oral days 3, 4, 5 in HEC/Tween, Giemsa-stained smears)	EC50 [6]	resistance index (RI) [7]
Cc1[nH]c2cc(CN3CCN(c4ccc(F)cc4)CC3)ccc2c(=O)c1Br [Compound 8an, 3-Bromo-7-((4-(4-fluorophenyl)piperazin-1-yl)methyl)-2-methylquinolin-4(1H)-one]	25.1 nM	25.5 nM	26.2 nM	> 20 µM	≥ 80 µM	1 to 19.9 µM (≈ 0.43 to 8.56 µg/mL)	2.83	> 85%	excellent activities	full inhibition	completely inhibited parasite growth	13	0/5	90.9%						
CCCCc1cc2c(=O)c(Br)c(C)[nH]c2cc1OCCOc1ccccc1 [Compound 16c, 3-Bromo-6-butyl-2-methyl-7-(2-phenoxyethoxy)quinolin-4(1H)-one]	2.6 nM	12.2 nM													approximately 10	49.5%	13	61%	2.12 nM	4.69
